The source of these data is patent US7879914B2, “Methods for treating viral infections using polyamine analogs” (Pathlogica LLC, priority 2005, dated 2011).

“Also recorded” adds a separate entry of the source. Read-outs that look alike come from different tables or passages of the source. Where only a bound is given, the exact number is not on record here.

The test system of assay [1] is HIV DNA associated with CD14 cells. The experiment in a line: HIV DNA in isolated CD14 cells after ex vivo drug exposure, quantitative DNA PCR. It is filed as cell-based. As for the experimental part: Blood from patients with advanced HIV disease was Percol gradient separated into peripheral blood mononuclear cells (PBMCs) and 5 million cells from each specimen were exposed to a 1 μM concentration of MGBG or control saline for five days. […] After the five day incubation, CD14 immunomagnetic separation with a Miltenyi separation system was performed. Separated CD14 cells from treated and untreated control specimens were evaluated for the level of HIV DNA in each specimen. C-jun, single copy DNA controls were utilized in each specimen to provide the HIV DNA/genomic equivalent values as determined by quantitative DNA PCR analysis as described in Mack, K. D., et al. JAIDS (2003) 33: 308-20. […]
Blood from three patients with advanced HIV disease was Percol gradient separated into peripheral blood mononuclear cells (PBMC's) and 5 million cells from each specimen were exposed to a 10 micromolar concentration of the polyamine analog CG47 or control saline for 5 days. […] Separated CD14 cells from treated and untreated control specimens were evaluated for the level of HIV DNA in each specimen. C-jun, single copy DNA controls were utilized in each specimen to provide the HIV DNA/genomic equivalent values as determined by quantitative DNA PCR analysis as described in Mack et al. (JAIDS). […]

The test system of assay [2] is CD16+ monocytes. The experiment in a line: Killing of CD16+ monocytes by polyamine biosynthesis inhibitors (Example 6). It is filed as cell-based, human. The note with it: for comparison of effectiveness of both PBIs: FIG. 6, 10 μM, five days. As for the experimental part: Mononuclear cells were isolated from individuals with HIV infection, uninfected individuals or a patient with ALS and incubated in the absence or presence of increasing concentrations of the PBIs, MGBG (PA-001) and CG47. After five days in culture under non-adherent conditions cells were isolated stained with antibodies to CD14+ and CD16+ and counted by flow cytometry using a FACSCAN (BD-biosciences). The fraction of CD14+ monocytes that expressed CD16 was determined and compared to levels seen in the absence of drug.
Those samples that were relatively resistant to PBIs required 100 μM or more of drug to achieve similar levels of killing. […] Overall 65% to 80% of samples from individuals with HAND were sensitive (>70% killing with 10 μM PBI or less) to PBIs.
The overall results with mononuclear cells from HIV infected individuals, ALS patients, and healthy controls are shown in FIG. 6. […] The number of mononuclear cell samples evaluated in each category were as follows: ALS with PA-001 (MGBG)=6, and with CG47=28. Drug resistant HIV with PA-001=22, and with CG47=48. HAD with PA-001=9, and with CG47=5. Healthy with PA-001=24, and with CG47=15.

The subject of assay [3] is CD14/CD16+ blood macrophages from HIV positive patients. Kind of assay: Susceptibility assay: killing of CD14/CD16+ blood macrophages from HIV patients. It is filed as cell-based. Conditions: for EC50: Homo sapiens, Macrophage, advanced HIV disease, read-out: Mean ED50. On the procedure:
The following procedures/protocols were used in some of the examples that follow. All steps were performed in a biological safety cabinet using Universal Precautions for handling human blood samples and standard aseptic techniques.
Blood was drawn in heparinized tubes (green top Vacutainer tubes from Becton-Dickson) and Percol gradient separated into peripheral blood mononuclear cells (PBMCs), according to the following procedure. Aliquots of no more than 25 mL whole blood were transferred into clean, sterile, prelabeled 50 mL conical tubes. Using a sterile 25 mL pipet, equal volume of PBS (Mg^+2/Ca^+2 free) was added to the whole blood and the tubes were inverted 2 or 3 times. […] (For example: 10 mL whole blood +10 mL PBS.)
The diluted blood was slowly and carefully layered over the sterile Percol in amounts of 15-20 mL by holding the pipet at a 45 degree angle, relative to the Percol tube, and slowly dripping the diluted blood down the side of the tube. The resulting mixture was centrifuged at 2100 RPM for 30 minutes at 25° C. The buffy coat (i.e., the white layer between the yellow plasma on top and clear Percol solution below) so obtained was then slowly aspirated, taking care not to aspirate the Percol. The buffy coat was resuspended in sterile PBS (Mg^+2/Ca^+2 free) and the volume was brought up to 50 mL. The mixture was gently mixed by slowly pipetting up and down 3 times and the cell suspension was centrifuged at 1500 RPM for 10 minutes at 25° C. The supernatant was discarded and the bottom of the tube gently tapped to dislodge the cell pellet.
The PBMC for the susceptibility assays was prepared in accordance with the following procedures. A cell culture medium was prepared by mixing RPMI+10% FBS+1% sodium pyruvate and filter sterilized using a filter unit with 0.22 micron pore size. The cell pellet was then resuspended in 3 ml of the cell culture medium. The suspension was gently mixed by slowly pipetting up and down 3 times. The cells were counted using a hemacytometer and the cell density was adjusted to 1×10^6 cells/mL in the cell culture medium, followed by mixing by slowly pipetting up and down 3 times. The cells were incubated in a 50 mL sterile polypropylene tube, at 37° C. and 5% CO2 for 1-2 days. The cap was loosened and the tubes were tipped to 30-45 degrees relative to the tray surface. A styrofoam tube rack was used to hold the tubes.
The MGBG drug was prepared in accordance with the following procedures. A primary stock of MGBG was prepared by weighing out enough MGBG to make a 1 molar (M) solution and dissolved in sterile PBS (Mg^+2/Ca^+2 free). The solution was vortexed until all of the MGBG had dissolved. A secondary stock (0.01 M) was prepared from a 1/100 dilution of the primary stock and filter sterilized by passing the solution through a 0.22 micron filter. A working stock (0.001 M or 1,000 microMolar) was prepared from a 1/10 dilution of the secondary stock. The CG47 drug was prepared by an identical procedure.
Drug doses for the susceptibility assays were prepared in accordance with the following procedures. Drug dilutions were prepared at 10-fold higher concentrations than the final desired concentrations. For example a 100 microMolar drug solution was made for a desired final concentration of 10 microMolar. The drugs were diluted an additional 1/10 upon addition to the cell suspension (e.g., 0.1 mL drug +0.9 mL cell suspension). The drug doses for the susceptibility assays were prepared right before use in cell culture media.
Susceptibility assays were conducted in accordance with the following procedures. The MGBG drug as added 1-2 days after PBMC was separated from whole blood. […]

Consider `CCNCCCNC/C=C\CNCCCNCC.Cl.Cl.Cl.Cl` [CG47, N,N′-bis(3-ethylaminopropyl)-cis-but-2-ene-1,4-diamine tetrahydrochloride], for which, in assay [1] (10 micromolar, 5 days, three blood specimens), the “reduction in HIV DNA associated with CD14 cells (average)” value is listed as above 90%. Besides, the “changes in lymphocyte levels” value in assay [2] (10 μM or less) is reported as “little or no changes”. The “comparison of effectiveness of both PBIs” value in assay [2] is given as “approximately equivalently effective”. For the same compound, the “killing of the CD14/CD16 blood macrophage population” value in assay [3] (10 micromolar, 5 days, PBMCs of three patients with advanced HIV disease) is given as above 80%. Besides, the “sensitivity of CD14/CD16+ macrophages from the HIV patient” value in assay [3] (FIG. 4, ex vivo) is “extremely sensitive”. In addition, in assay [3] (CG47, mean of 13 patients), the EC50 amounted to 3500 nM.

Consider `CC(/C=N/NC(=N)N)=N\NC(=N)N` [MGBG], for which the “reduction in HIV DNA associated with CD14 cells (average)” value in assay [1] (1 μM, five days) is above 99%. In assay [2], the “comparison of effectiveness of both PBIs” value is listed as “approximately equivalently effective”. Besides, in assay [3] (1 μM), the “killing of CD14/16+ cells that contain HIV DNA” value was “Complete killing; also recorded: near quantitative”. In assay [3] (1 μM, five days, PBMCs of patients with advanced HIV disease), the “killing of the CD14/CD16 blood macrophage population” value is above 80%. The “killing of HIV infected macrophages, dose dependence” value in assay [3] (HIV positive patients, FIG. 1) is “dose-dependent”. For the same compound, the “killing of HIV-infected macrophages from HAD patients” value in assay [3] (HIV-associated dementia (HAD) patients, compared with HIV positive) is “nearly as effective”. Further, in assay [3] (MGBG, mean of 10 patients), the EC50 turned out to be 465 nM.
